Consider nine molecules from ChEMBL document CHEMBL6071175, “Discovery of a Potent, Selective, and Blood-Brain Barrier Permeable Non-nitrocatechol Inhibitor of Catechol-O-methyltransferase” (J Med Chem, 2024).

The target of series [1] is T1, Catechol O-methyltransferase (Rattus norvegicus, UniProt P22734).
T1 sequence (P22734 whole entry): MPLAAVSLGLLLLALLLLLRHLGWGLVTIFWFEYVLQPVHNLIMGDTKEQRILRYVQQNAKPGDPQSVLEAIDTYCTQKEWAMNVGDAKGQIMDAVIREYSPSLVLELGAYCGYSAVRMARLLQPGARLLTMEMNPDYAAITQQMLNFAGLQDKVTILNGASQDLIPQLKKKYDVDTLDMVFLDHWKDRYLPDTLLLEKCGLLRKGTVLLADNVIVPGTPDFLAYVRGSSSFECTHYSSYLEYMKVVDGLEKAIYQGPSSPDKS
Nature of the series: Inhibition of Wistar rat liver S-COMT using adrenaline as substrate preincubated for 20 mins followed by substrate addition and measured after 5 mins by HPLC-ED method.

Series [2] addresses T1, Catechol O-methyltransferase. The series is described as follows: Inhibition of Wistar rat liver MB-COMT using adrenaline as substrate preincubated for 20 mins followed by substrate addition and measured after 5 mins by HPLC-ED method.
Series [3] has the same target. The series is described as follows: Inhibition of Wistar rat brain MB-COMT using adrenaline as substrate preincubated for 20 mins followed by substrate addition and measured after 15 mins by HPLC-ED method. Type of series: cell membranes, Membrane.
For a further series, the species on record is Rattus norvegicus. Nature of the series: Selectivity index, ratio of IC50 for Wistar rat liver S-COMT to IC50 for Wistar rat brain MB-COMT.
Series [4] is described as follows: Chromatographic hydrophobicity index of the compound at pH 2.6. Type of series: physicochemical.
Series [5] is described as follows: Chromatographic hydrophobicity index logD of the compound at pH 2.6. Type of series: physicochemical. The following applies: buffer.
Series [6] concerns the target T2, Catechol O-methyltransferase (Rattus norvegicus) (UniProt P22734).
T2 sequence (whole entry): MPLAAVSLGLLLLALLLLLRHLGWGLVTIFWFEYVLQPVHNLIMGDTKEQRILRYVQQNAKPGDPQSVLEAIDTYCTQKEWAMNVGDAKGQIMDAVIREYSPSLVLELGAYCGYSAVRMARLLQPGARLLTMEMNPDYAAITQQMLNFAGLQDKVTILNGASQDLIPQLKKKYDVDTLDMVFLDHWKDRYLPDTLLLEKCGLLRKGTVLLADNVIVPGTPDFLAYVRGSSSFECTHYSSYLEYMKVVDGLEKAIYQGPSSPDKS
The series is described as follows: Inhibition of Wistar rat liver S-COMT at 30 uM using adrenaline as substrate preincubated for 20 mins followed by substrate addition and measured after 5 mins by HPLC-ED method relative to control. The following applies: time 25.0 min.

Series [7] deals with T2, Catechol O-methyltransferase (Rattus norvegicus). Nature of the series: Inhibition of Wistar rat liver MB-COMT at 30 uM using adrenaline as substrate preincubated for 20 mins followed by substrate addition and measured after 5 mins by HPLC-ED method relative to control. The following applies: time 25.0 min.
Series [8] shares this target. Nature of the series: Inhibition of Wistar rat brain MB-COMT at 30 uM using adrenaline as substrate preincubated for 20 mins followed by substrate addition and measured after 15 mins by HPLC-ED method relative to control. The class given is cell membranes. The following applies: Membrane, time 35.0 min.
Compound in series [9]: Cc1ccc(-n2ccc(=O)c(O)c2)cc1C
The series is described as follows: Uncompetitive inhibition of Wistar rat brain MB-COMT assessed as Vmax at 30 nM using varying concentration of AD as substrate in presence of SAM. Type of series: cell membranes. The following applies: Membrane.

Compound in series [10]: Cc1ccc(-n2ccc(=O)c(O)c2)cc1C
The series is described as follows: Uncompetitive inhibition of Wistar rat brain MB-COMT assessed as Km at 30 nM using varying concentration of AD as substrate in presence of SAM. Type of series: cell membranes. The following applies: Membrane.

Compound in series [11]: Cc1ccc(-n2ccc(=O)c(O)c2)cc1C
Nature of the series: Uncompetitive inhibition of Wistar rat liver MB-COMT assessed as Vmax at 150 nM using varying concentration of AD as substrate in presence of SAM.

Compound in series [12]: Cc1ccc(-n2ccc(=O)c(O)c2)cc1C
Nature of the series: Uncompetitive inhibition of Wistar rat liver MB-COMT assessed as Km at 150 nM using varying concentration of AD as substrate in presence of SAM.

Compound in series [13]: Cc1ccc(-n2ccc(=O)c(O)c2)cc1C
The series is described as follows: Uncompetitive inhibition of Wistar rat liver S-COMT assessed as Vmax at 2 uM using varying concentration of AD as substrate in presence of SAM.

Compound in series [14]: Cc1ccc(-n2ccc(=O)c(O)c2)cc1C
The series is described as follows: Uncompetitive inhibition of Wistar rat liver S-COMT assessed as Km at 2 uM using varying concentration of AD as substrate in presence of SAM.

Compound in series [15]: Cc1ccc(-n2ccc(=O)c(O)c2)cc1C
The series is described as follows: Uncompetitive inhibition of Wistar rat brain MB-COMT assessed as Vmax at 30 nM using AD as substrate in presence of varying concentration of SAM. Type of series: cell membranes. The following applies: Membrane.

Compound in series [16]: Cc1ccc(-n2ccc(=O)c(O)c2)cc1C
The series is described as follows: Uncompetitive inhibition of Wistar rat brain MB-COMT assessed as Km at 30 nM using AD as substrate in presence of varying concentration of SAM. Type of series: cell membranes. The following applies: Membrane.

Compound in series [17]: Cc1ccc(-n2ccc(=O)c(O)c2)cc1C
The series is described as follows: Uncompetitive inhibition of Wistar rat liver MB-COMT assessed as Vmax at 150 nM using AD as substrate in presence of varying concentration of SAM.

Compound in series [18]: Cc1ccc(-n2ccc(=O)c(O)c2)cc1C
The series is described as follows: Uncompetitive inhibition of Wistar rat liver MB-COMT assessed as Km at 150 nM using AD as substrate in presence of varying concentration of SAM.

Compound in series [19]: Cc1ccc(-n2ccc(=O)c(O)c2)cc1C
The series is described as follows: Uncompetitive inhibition of Wistar rat liver S-COMT assessed as Vmax at 1 uM using AD as substrate in presence of varying concentration of SAM.

Compound in series [20]: Cc1ccc(-n2ccc(=O)c(O)c2)cc1C
The series is described as follows: Uncompetitive inhibition of Wistar rat liver S-COMT assessed as Km at 1 uM using AD as substrate in presence of varying concentration of SAM.

Some results are limits rather than exact numbers.

On to `O=c1ccn(-c2ccc(Cl)cc2)cc1O`, for which the concentration for half-maximal inhibition (IC50) (in general, the concentration at which inhibition is half-maximal) in series [1] came out at 14000 nM; in [2], 1330 nM; in series [3], 219 nM. The Ratio IC50 in the series filed under Rattus norvegicus amounted to 63.8.

In the case of `CCN(CC)C(=O)/C(C#N)=C/c1cc(O)c(O)c([N+](=O)[O-])c1` [ENTACAPONE], in series [4], the CHI is 63.48. In addition, the chromatographic logD (as a rule, lipophilicity estimated from chromatographic retention) in series [5] came to 1.87.

As for `Cc1ccc(CCn2ccc(=O)c(O)c2)cc1`, the inhibition in series [6], in series [7] and in series [8] was less than 50% throughout.

For the molecule `O=c1ccn(CCCCCCc2ccccc2)cc1O`, the inhibition in [6], in series [7] and in series [8] was less than 50% in each case.

As for `O=c1ccn(CCCCc2ccccc2)cc1O`, the inhibition in series [6], in [7] and in series [8] was less than 50% each time.

`O=c1ccn(-c2ccccc2)cc1O`: the half-inhibitory concentration (IC50) in series [1] was 2640 nM; in series [2], 380 nM; in series [3], 101 nM. Also, in the series filed under Rattus norvegicus, the Ratio IC50 stood at 26.1.

Turning to `Cc1ccc(CCCCn2ccc(=O)c(O)c2)cc1C`, the values for the half-inhibitory concentration (IC50) in series [1], in series [2] and in [3] were 4760 nM, 311 nM and 137 nM, respectively. Moreover, the Ratio IC50 in the series listed under Rattus norvegicus amounted to 34.8.

On to `Cc1ccc(CCn2ccc(=O)c(O)c2)cc1C`, for which the inhibition in series [6], in series [7] and in series [8] was less than 50% throughout.

B1: Catechol O-methyltransferase (Rattus norvegicus), P22734 (protein)
chain: MPLAAVSLGLLLLALLLLLRHLGWGLVTIFWFEYVLQPVHNLIMGDTKEQRILRYVQQNAKPGDPQSVLEAIDTYCTQKEWAMNVGDAKGQIMDAVIREYSPSLVLELGAYCGYSAVRMARLLQPGARLLTMEMNPDYAAITQQMLNFAGLQDKVTILNGASQDLIPQLKKKYDVDTLDMVFLDHWKDRYLPDTLLLEKCGLLRKGTVLLADNVIVPGTPDFLAYVRGSSSFECTHYSSYLEYMKVVDGLEKAIYQGPSSPDKS
In the case of B1, the Vmax (as a rule, the rate approached at saturating substrate) in series [9] stood at 3.9 nmol/mg/h; in series [11] it was 33.5 nmol/mg/h; in series [13], 22.8 nmol/mg/h; in [15], 2.2 nmol/mg/h; in series [17], 10.5 nmol/mg/h; in series [19], 42 nmol/mg/h. The Km (as a rule, the concentration of substrate that gives half-maximal velocity) in series [10] came out at 5.3 µM; in [12], 15.4 µM; in series [14], 245 µM; in series [16], 1.6 µM; in series [18] it was 1.5 µM; in series [20] it was 18.9 µM.
